In US20030166511A1, “Cardioprotective composition comprising ceruloplasmin and uses thereof” (GESTILAB INC., priority 1999, published 2003):
Like-named read-outs stand apart in the source and are kept apart here.

Columns and labels:
[1] = cited from earlier work; for concentrations ensuring good antioxidative activity in vitro: in vitro (Atanasiu et al., 1998)
[2] = tested on: ischemic isolated rat heart; assay: Reperfusion-induced irreversible ventricular fibrillation in isolated rat heart submitted to partial ischemia-reperfusion (Langendorff); settings: TRIAD (S2) 0.16×, CP 0.5 μM
Method: All experiments were conformed to rules of the Guide for the care and use of laboratory animals published by the US National Institutes of Health (NIH publication No 85-23, revised 1985). Adult male Wistar rats (225-250 g) were anaesthetized with sodium pentobarbitone intra-peritoneally (0.1 ml/100 g body weight) and then heparinized (500 UI intra-peritoneally). […]
Hearts were perfused for a 10 min control period with KH buffer, and then […] with KH+TRIAD for stabilization. […] At the end of this 10 min arterial occlusion period, reperfusion was initiated by cutting the ligature with a scalpel bled and rhythm disturbances were monitored for 15 min more. Left ventricular pressure and epicardial ECG were continuously monitored before and during ischemia and reperfusion. […]
Rat hearts were first perfused for 10 min with KH buffer and then for another 10 min with the same buffer containing TRIAD (S2) prepared as described above (section 2.2), until equilibration of cardiodynamic variables was achieved. […] Left ventricular pressure and epicardial ECG were continuously monitored before and during ischemia and reperfusion. […]
Arrhythmia were defined according to the Lambeth convention (Walker et al., 1988). ECG recordings were analyzed for the incidence of irreversible ventricular fibrillation (IVF) and for the time of normal sinus. […]

isolated rat hearts = settings: isolated rat heart, blood-free model (Chahine et al., 1991; Atanasiu et al, 1995), cited from earlier work
[3] = conditions without oxidative stress (Atanasiu et al, 1996); cited from earlier work

**Q.** For Albumin [reference compound], which “concentrations ensuring good antioxidative activity in vitro” value [1] is on record?
**A.** 260 µM

**Q.** For Ceruloplasmin [CP], which “incidence of reperfusion-induced irreversible ventricular fibrillation (IVF)” value ([2]; isolated rat heart, 10 min regional ischemia then reperfusion, control 100%) is on record?
**A.** 75%

**Q.** And the cardioprotection ([2]; reduction of IVF incidence versus control (100%))?
**A.** 25%

**Q.** What about the cardioprotective concentrations (isolated rat hearts) of the same substance?
**A.** up to 2 μM

**Q.** And the cardiotoxic concentration (isolated rat hearts)?
**A.** ≥ 4 µM

**Q.** What about the cardiotoxic concentration (isolated rat hearts; listed as Ceruloplasmin) of the same substance?
**A.** 4 µM

**Q.** What about the electrophysiological effect [3] of the same substance?
**A.** prolongation of Effective Refractory Period (ERP) and of the action potential (AP)

**Q.** What about the “concentrations ensuring good antioxidative activity in vitro” value [1] of the same substance?
**A.** 2 to 15 µM

**Q.** And the “scavenging capacity compared with other antioxidants” value ([1]; in vitro, β-phycocyanin indicator)?
**A.** better scavenging capacity than SOD and than deferoxamine
